Assay results as given in patent US12595251B2, “Amidines and amidine analogs for the treatment of bacterial infections and potentiation antibiotics” (GEORGIA STATE UNIVERSITY RESEARCH FOUNDATION, INC., priority 2018, dated 2026).
Where “and” joins values, the source holds several entries; their conditions need not be identical. Identical values can stand only once. Like-named read-outs stand apart in the source and are kept apart here.

Assays:
[1] = test system: E. coli; assay: Sensitization of E. coli to erythromycin (sensitization fold from IC90, OD600, 20 h); type: cell-based, Escherichia coli; conditions: NA=no activity; for SF (E. coli) at 12.5 μM / SF (E. coli) at 25 μM / SF (E. coli) at 6 μM / SF (E. coli) at 12 μM: erythromycin; for SF (E. coli) at 12.5 μM: compound at 12.5 μM; for SF (E. coli) at 25 μM: compound at 25 μM; for SF (E. coli) at 6 μM: compound at 6 μM; for SF (E. coli) at 12 μM: compound at 12 μM
Procedure: (§1) E. coli bacteria were cultured in Miller's broth at 37° C. overnight prior to treatment. B. subtilis bacteria were cultured in nutrient broth at 37° C. overnight prior to treatment. […] Bacterial density was measured based on OD600.

[2] = test system: B. subtilis; assay: Sensitization of B. subtilis to erythromycin (sensitization fold from IC90, OD600, 20 h); type: cell-based, Bacillus subtilis; conditions: for SF (B. subtilis) at 6 μM: compound at 6 μM; for SF (B. subtilis) at 12 μM: compound at 12 μM; for SF (B. subtilis): sensitization fold = IC90 of erythromycin without/with compound, compound concentration not given, T=toxic
Procedure: as §1

[3] = test system: wild-type E. coli; assay: Sensitization of wild-type E. coli toward antibiotics (MIC of antibiotic with/without sensitizer); type: cell-based, Escherichia coli; conditions: for MIC: Escherichia coli; for MIC of AB with Compound C (5 μg/ml) / FIC: antibiotic plus Compound C 5 μg/ml; for FIC: fractional inhibitory concentration
Procedure: Bacteria were cultured with the antibiotic at various concentrations in the presence or absence of bacterial sensitizer for 24 hours at 37° C. Bacterial growth density was determined by measuring OD600 (absorbance measured at a wavelength of 600 nm). […]
The formula for calculating FIC is shown below: […]

[4] = test system: NDM-1 over-expressing E. coli; assay: microbe, parasite or virus in culture; type: cell-based, Escherichia coli; conditions: for MIC: Escherichia coli; for Sensitization fold: MIC of antibiotic only / MIC with Compound C 5 μg/ml; for FIC / MIC of AB with Compound C (5 μg/ml): antibiotic plus Compound C 5 μg/ml
[5] = test system: wild type B. subtilis; assay: Sensitization of B. subtilis toward antibiotics (MIC, OD600, 24 h); type: cell-based, Bacillus subtilis; conditions: 5.5 μg/ml Compound M-1
Procedure: FIG. 22A is a bar graph showing that Compound M-1 sensitizes B. subtilis towards rifampicin as described in Example 13. Bacteria was cultured with rifampicin at various concentrations in the presence or absence of Compound M-1 for 24 hours at 37° C. and bacterial growth density was determined by measuring OD600. The y-axis is growth density measured in percent. The x-axis is rifampicin concentration measured in micrograms per milliliter (***: p<0.01).
Compound M-1 can sensitize Gram-positive bacteria such as B. subtilis towards traditional antibiotics. […] The sensitization fold is 32-fold for Compound M-1 and the FIC index is 0.14.

[6] = test system: wild type B. subtilis; assay: as above; type: cell-based, Bacillus subtilis; conditions: antibiotic alone
[7] = 24 h, antibiotic alone, wild-type E. coli, read-out: MIC of AB only
[8] = antibiotic alone, read-out: MIC of AB only
[9] = antibiotic alone, wild-type E. coli, read-out: MIC of AB only
[10] = read-out: MIC of AB with Compound C (5 μg/ml), antibiotic plus Compound C 5 μg/ml, wild-type E. coli

## Cc1cc(COc2ccc(C(=N)N)cc2)nc(COc2ccc(C(=N)N)cc2)c1
[1]
  SF (E. coli) at 12.5 μM: 8 fold
  SF (E. coli) at 25 μM: 32 fold
[1]; sensitization fold = IC90 of erythromycin without/with compound, compound concentration not given, T=toxic
  SF (E. coli): 33
[2]; erythromycin, NA=no activity
  SF (B. subtilis) at 6 μM: 8 fold
  SF (B. subtilis) at 12 μM: 32 fold
[2]; NA=no activity
  SF (B. subtilis): > 30

## O=C(N[C@H](CO)[C@H](O)c1ccc([N+](=O)[O-])cc1)C(Cl)Cl [Chloramphenicol, chloramphenicol]
[3]; [7]
  MIC: 12.5 µg/mL
[3]; wild-type E. coli
  MIC of AB with Compound C (5 μg/ml): 1.5 µg/mL
  FIC: 0.22
[4]; [8]
  MIC: 6.25 µg/mL
[4]
  Sensitization fold: 8
  FIC: 0.22
  MIC of AB with Compound C (5 μg/ml): 0.8 µg/mL

## CCC[C@@H]1C[C@@H](C(=O)N[C@@H]([C@H]2O[C@H](SC)[C@H](O)[C@@H](O)[C@H]2O)[C@H](C)Cl)N(C)C1 [Clindamycin, clindamycin]
[3]; [7]
  MIC: 250 µg/mL
[3]; wild-type E. coli
  MIC of AB with Compound C (5 μg/ml): 4 µg/mL
  FIC: 0.12
[4]; [8]
  MIC: 250 µg/mL
[4]
  FIC: 0.12
  MIC of AB with Compound C (5 μg/ml): 4 µg/mL

## CC[C@H]1OC(=O)[C@H](C)[C@@H](O[C@H]2C[C@@](C)(OC)[C@@H](O)[C@H](C)O2)[C@H](C)[C@@H](O[C@@H]2O[C@H](C)C[C@H](N(C)C)[C@H]2O)[C@](C)(O)C[C@@H](C)C(=O)[C@H](C)[C@@H](O)[C@]1(C)O [Erythromycin, erythromycin]
[3]; [9]
  MIC: 50 µg/mL
[3]; [10]
  MIC: 0.4 µg/mL
[3]; wild-type E. coli
  FIC: 0.11
[5]
  MIC of antibiotic on B. subtilis in the presence of Compound M-1: 1.5 µg/mL
[6]
  MIC of antibiotic on B. subtilis in the absence of Compound M-1: 50 µg/mL

## CO[C@@H]1[C@@H](OC(N)=O)[C@@H](O)[C@H](Oc2ccc3c(O)c(NC(=O)c4ccc(O)c(CC=C(C)C)c4)c(=O)oc3c2C)OC1(C)C [Novobiocin, novobiocin]
[3]; [9]
  MIC: 100 µg/mL
[3]; wild-type E. coli
  MIC of AB with Compound C (5 μg/ml): 1.5 µg/mL
  FIC: 0.12
[4]; [8]
  MIC: 50 µg/mL
[4]; read-out: MIC of AB with Compound C (5 μg/ml), antibiotic plus Compound C 5 μg/ml
  MIC: 1.6 µg/mL
[4]
  Sensitization fold: 32
  FIC: 0.13

## CO[C@H]1/C=C/O[C@@]2(C)Oc3c(C)c(O)c4c(O)c(c(/C=N/N5CCN(C)CC5)c(O)c4c3C2=O)NC(=O)/C(C)=C\C=C\[C@H](C)[C@H](O)[C@@H](C)[C@@H](O)[C@@H](C)[C@H](OC(C)=O)[C@@H]1C [Rifampicin, rifampicin]
[3]; [7]
  MIC: 10 µg/mL
[3]; [9]
  MIC: 10 µg/mL
[3]; [10]
  MIC: 0.02 µg/mL
[3]; MIC of antibiotic only / MIC of antibiotic with Compound C 5 μg/ml, wild-type E. coli
  Sensitization fold: 516 and 512
[3]; wild-type E. coli
  FIC: 0.11 and 0.10
[4]
  Sensitization fold: 516
  FIC: 0.11
  MIC of AB with Compound C (5 μg/ml): 0.019 µg/mL
[5]
  MIC of antibiotic on B. subtilis in the presence of Compound M-1: 0.037 µg/mL

## Cc1cc(COc2ccc(C3=NCCN3)cc2)cc(COc2ccc(C3=NCCN3)cc2)c1 [drawing 723]
[2]; NA=no activity
  SF (B. subtilis): >4

## N=C(N)c1ccc(OCc2ccc(COc3ccc(C(=N)N)cc3)cc2)cc1 [drawing 728]
[2]; NA=no activity
  SF (B. subtilis): <2

## COc1cc(C(=N)N)ccc1OCc1cccc(COc2ccc(C(=N)N)cc2OC)c1F [drawing 731]
[2]; erythromycin, NA=no activity
  SF (B. subtilis) at 6 μM: 4-fold at 6 μM

## Cc1cc(COc2ccc(CN)cc2)cc(COc2ccc(CN)cc2)c1 [drawing 733]
[1]
  SF (E. coli) at 25 μM: 4-fold at 25 μM
[2]; erythromycin, compound at 12.5 μM, NA=no activity
  SF (B. subtilis) at 12.5 μM: 16-fold at 12.5 μM

## Cc1cc(CCc2ccc(C(=N)N)cc2)cc(CCc2ccc(C(=N)N)cc2)c1 [drawing 734]
[1]
  SF (E. coli) at 12.5 μM: 8 fold
  SF (E. coli) at 25 μM: 32 fold
[2]; erythromycin, NA=no activity
  SF (B. subtilis) at 6 μM: 32-fold at 6 μM

## Cc1cc(OCc2ccc(C(=N)N)cc2)cc(OCc2ccc(C(=N)N)cc2)c1 [drawing 736]
[1]
  SF (E. coli) at 25 μM: 32-fold at 25 μM
[2]; erythromycin, NA=no activity
  SF (B. subtilis) at 12 μM: 32-fold at 12 μM

## COc1cc(C(=N)N)ccc1OCc1cc(COc2ccc(C(=N)N)cc2OC)cc(C(C)(C)C)c1 [drawing 741]
[1]
  SF (E. coli) at 6 μM: 2 fold
  SF (E. coli) at 12.5 μM: 8 fold
[2]; erythromycin, NA=no activity
  SF (B. subtilis) at 6 μM: 2 fold
  SF (B. subtilis) at 12 μM: 8 fold

## CC(C)(C)c1cc(COc2ccc(C(=N)N)cc2F)cc(COc2ccc(C(=N)N)cc2F)c1 [drawing 742]
[1]
  SF (E. coli) at 6 μM: 4 fold
  SF (E. coli) at 12 μM: 32 fold
[2]; erythromycin, compound at 3 μM
  SF (B. subtilis) at 3 μM: 2 fold
[2]; erythromycin, NA=no activity
  SF (B. subtilis) at 6 μM: 8 fold

## Cc1cc(COc2cccc(C(=N)N)c2)cc(COc2cccc(C(=N)N)c2)c1 [drawing 743]
[1]
  SF (E. coli) at 12 μM: 2 fold
  SF (E. coli) at 25 μM: 8 fold
[2]; erythromycin, NA=no activity
  SF (B. subtilis) at 6 μM: 8 fold
  SF (B. subtilis) at 12 μM: 32 fold
